Results: US20190192458A1, “THERAPEUTIC/PROPHYLACTIC AGENT FOR GRAFT-VERSUS-HOST DISEASE, FIBROCYTE INVASION INHIBITOR, AND INHIBITOR AGAINST TEAR REDUCTION AND REDUCTION IN GOBLET CELLS” (KEIO UNIVERSITY, priority 2016, published 2019)

What was measured:
[1] = test system: mouse lacrimal gland fibroblasts; experiment: Cultured lacrimal gland fibroblasts from PBA-treated and vehicle-treated mice (immunoblot, ELISA, qPCR); assay type: cell-based
Description: (§1) Bone marrow transplantation was performed as described in the above section “Bone marrow transplantation,” and the resulting allogeneic bone marrow transplantation recipient mice were divided into two groups. One group was treated with intraperitoneal injection of PBA (10 mg/kg) (Aldrich) while the other was treated with intraperitoneal injection of a solvent vehicle⋅phosphate buffered saline (PBS) (pH 7.4). The allogeneic bone marrow transplantation recipients received once-daily administration of PBA or the solvent vehicle from Day 10 to Day 27 after bone marrow transplantation. They were sacrificed on Day 28 after bone marrow transplantation.
Fibroblasts from a mouse lacrimal gland were cultured by an established method reported by Yaguchi et al. (Yaguchi S, Ogawa Y, Shimmura S, et al., Presence and Physiologic Function of the Renin—Angiotensin System in Mouse Lacrimal Gland. Investigative Ophthalmology & Visual Science, 2012; 53: 5416-5425). A mouse lacrimal gland was collected and cut into small pieces. The tissue pieces were incubated at 37° C. in DMEM (Life Technologies Japan Ltd.) containing 5% of fetal bovine serum (FBS) Sigma), and 5% of an antibiotic. The antibiotic included a 1:1 mixture of streptomycin sulfate (Meiji Seika Pharma Co., Ltd.) and benzylpenicillin potassium (Meiji Seika Kaisha, Ltd.). The small pieces were used to grow fibroblasts starting from 3 to 4 days later. Fibroblasts were cultured in DMEM containing 5% of FBS and 5% of the antibiotic, and were used in experiments after 3 to 5 passages. Trypsin (Becton Dickinson) was used to detach fibroblasts from the culture dish.
The total RNA was extracted from the exorbital lacrimal gland, the proximal portion of the small intestine, the dorsal skin, the liver, the cultured fibroblasts, and the cultured macrophages using a miRNeasy mini kit (Qiagen), and the corresponding complementary DNAs were synthesized using a Rever Tra Ace qPCR RT kit (Toyobo Co., Ltd.). Primers used for analyzing the mRNA expression of the following genes with the TaqMan real-time polymerase chain reaction (PCR) were purchased from Applied Biosystems: housekeeping gene […] (GAPDH), glucose-regulated protein 78 (GRP78), Interleukin-1β (IL-1β), IL-6, IL-10, macrophage chemoattractant protein-1 (MCP-1), and transcription growth factor-β (TGF). A Step One Plus system (Applied Biosystems) was used to perform quantitative real time PCR, and the resulting data was analyzed by the 2^−ΔΔCT method. GAPDH was used as an internal standard for measuring the expression of mRNA.
(§2) Tissues of interest were each placed into an Eppendorf tube, and a pre-cooled RIPA buffer solution was then added to the tube. Subsequently, the tissues were each homogenized with an electric homogenizer. Samples were each allowed to stand on ice for 1 hour, and then centrifuged at 15000 rpm for 5 minutes at 4° C. Then, the supernatants were each collected in a fresh tube on ice, and used as a cell lysate. The cell lysates each received the same amount of a 5×Laemmli buffer solution, and each was heated at 100° C. for 5 minutes to denature proteins.
(§3) An aliquot of each sample having the same amount of proteins was loaded into a well of an SDS-PAGE gel, and then […]. Proteins were transferred from the gel to a membrane at 15 V for 20 minutes. The membrane was blocked at room temperature for 1 hour with 5% skim milk or 5% BSA (bovine serum albumin) in 1×TBST (a mixture of Tris-buffered saline and Tween 20). Subsequently, the membrane was incubated with a primary antibody at 4° C. overnight. The above primary antibody was diluted 1000 times with 5% skim milk or 5% BSA in 1×TBST. After incubation with the primary antibody, the membrane was washed with 1×TBST (3×10 minutes), and subjected to a secondary antibody at room temperature for 1 hour, and then washed with 1×TBST (3×10 minutes) and 1×TBS (2×10 minutes).
Proteins of interest were visualized by either one of the following two methods. […]

[2] = test system: endoplasmic reticulum stress markers and related inflammation markers in cGVHD target organs; experiment: Immunoblot analysis of endoplasmic reticulum stress markers and related inflammation markers in cGVHD target organs; assay type: in vivo, mouse; conditions: n=4
Description: as §1
cGVHD-affected organs (exorbital lacrimal gland, proximal portion of the small intestine, dorsal skin, liver, salivary gland, lung, large intestine, and eyes) were analyzed herein.
as §2, §3
Proteins of interest were visualized by either one of the following two methods. (1) A target protein was colorimetrically detected using a BCIP/NBT substrate (Promega). (2) A signal was developed with an enhanced chemiluminescence (ECL) detection reagent (GE Healthcare), and a target protein was then visualized with an LAS4000 mini chemiluminescence imaging system (FUJIFILM Corporation/GE Healthcare).
The intensity of the resulting protein band was analyzed using image processing software ImageJ. Primary antibodies used in the experiments were GRP78 (Abcam), phospho-PERK (Thr980; Cell Signaling Technology Inc.), PERK (C33E10; Cell Signaling Technology Inc.), phosphor-IRE1α (Thermo Fisher Sceientific), IRE1α (14C10; Cell Signaling Technology Inc.), phosphor-eIF2α (119A11; Cell Signaling Technology Inc.), eIF2α (Cell Signaling Technology Inc.), CHOP (9C8; Thermo Fisher Scientific), TXNIP (D5F3E, Cell Signaling Technology Inc.), NF-κB (Abcam), HSP47 (SPA-470; Stress-Gen Biotechnologies Corp.), CTGF (Abcam), and β-actin (AC-15; Abcam).
With regard to the secondary antibody, (1) either AP-conjugated anti-mouse IgG antibody (Promega) or AP-conjugated anti-rabbit IgG antibody (Promega) was used when protein bands were chromogenically visualized; (2) HRP-conjugated anti-mouse antibody (Thermo Fisher Scientific) or HRP-conjugated anti-rabbit antibody (Thermo Fisher Scientific) was used when target proteins were detected by ECL.

[3] = PBA-treated vs vehicle-treated fibroblasts, immunoblot, n=4
[4] = cultured fibroblasts from PBA-treated vs vehicle-treated mice, immunoblot
[5] = PBA-treated vs vehicle-treated organs
[6] = organs of PBA-treated (10 mg/kg i.p.) vs vehicle-treated cGVHD mice

Compound: O=C(O)CCCc1ccccc1 [PBA, 4-phenyl-n-butyric acid]
- production of MCP-1 by lacrimal gland fibroblasts ([1]; PBA-treated vs vehicle-treated fibroblasts, ELISA, n=4): decreased
- protein level of CTGF in lacrimal gland fibroblasts [1, 3]: decreased
- protein level of HSP47 in lacrimal gland fibroblasts [1, 3]: decreased
- mRNA levels of IL-6 in lacrimal gland fibroblasts ([1]; PBA-treated vs vehicle-treated fibroblasts, qPCR, n=4): decreased
- CHOP in lacrimal gland fibroblasts [1, 4]: markedly inhibited
- GRP78 in lacrimal gland fibroblasts [1, 4]: markedly inhibited
- phosphorylated IRE1α in lacrimal gland fibroblasts [1, 4]: markedly inhibited
- phosphorylated PERK in lacrimal gland fibroblasts [1, 4]: markedly inhibited
- phosphorylated eIF2α in lacrimal gland fibroblasts [1, 4]: markedly inhibited
- proinflammatory molecule NF-κB in organs [2, 5]: inhibited
- proinflammatory molecule TXNIP in organs [2, 5]: inhibited
- protein level of CHOP in organs [2, 6]: lower protein levels
- protein level of GRP78 in organs [2, 6]: lower protein levels
- protein level of p-IRE1α in organs [2, 6]: lower protein levels
- protein level of p-PERK in organs [2, 6]: lower protein levels
- protein level of p-eIF2α in organs [2, 6]: lower protein levels
